Ends that are not written are not given here.
Tests used:
Assay type in all cases: binding, human
[1] = test system: IgG antibodies in sera of Zika patients; assay: Peptide microarray IgG screening, first study (ZIKV proteome / NS1, NS2a, NS2b arrays)
Description: In a first study, the inventors characterized the antibody profiles of Zika patients in a systematic manner. Therefore, they translated the proteomes of 15 different ZIKV strains (taken from the NCBI database, see Table 1 below) in the form of overlapping peptides as high-density peptide arrays and used 84 different patient and control sera to screen several thousands of potential antigens for pathogen induced antibodies.
In addition, the inventors investigated the time-dependent antibody variation in patients (acute vs. convalescent stage). They screened patient sera from their collaboration partner in Brazil with different peptide arrays, containing the whole proteome of the ZIKV (first screening round). […] Almost no signals could be observed in control samples. […]
In the first study, sera were diluted 1:1000 in PBS buffer with 0.05% Tween 20 pH 7.4 (PBST) and 10% blocking buffer, incubating the sera for 16 h at 4° C. and 50 RPM orbital shaking. […] Image analysis and quantification was performed with the PepSlide Analyzer software (Sicasys Software GmbH, Heidelberg, Germany).
Samples used for the peptide array experiments of the first study were collected from individuals with acute febrile illnesses enrolled in a prospective cohort study from May 2015 to April 2016. […] For molecular viral diagnosis, quantitative real-time PCR (qRT-PCR) for Dengue (DENV) and Zika (ZIKV) viruses was performed. […]

[2] = test system: IgG antibodies in plasma of Zika virus patients; assay: Proteome-wide Zika virus peptide microarray, second study, IgG; conditions: plasma 1:250, acute and convalescent samples
Description: (§1) In a second more extended study, the inventors further characterized the IgG and IgM antibody profiles of Zika patients in a more comprehensive manner Therefore, they translated the proteomes of 19 Zika virus strains taken from sequencing data from Nicaragua, Colombia, Guatemala, Honduras, Mexico and Panama 100 additional Zika virus proteomes from the USA with a higher sequence heterogeneity into 4,356 different overlapping Zika virus peptides printed in duplicate on high-density peptide arrays for a high-resolution proteome-wide epitope screening.
(§2) The inventors used plasma of 100 Zika virus patients with a confirmed dengue virus naïve status in the acute and convalescent phase (200 samples), plasma of 50 Zika virus patients with a confirmed dengue virus positive status in the acute and convalescent phase (100 samples), 50 plasma samples of dengue virus patients in the convalescent phase taken before the Zika virus outbreak as disease control and plasma of 25 individuals with a confirmed dengue virus and Zika virus negative status as healthy controls. […] The multiplexed IgG and IgM analysis was enabled by highly specific fluorescently labeled anti-human IgG and anti-human IgM secondary antibodies with different fluorescence wavelengths for emission and detection. […]

[3] = test system: IgM antibodies in plasma of Zika virus patients; assay: Proteome-wide Zika virus peptide microarray, second study, IgM; conditions: plasma 1:250, acute and convalescent samples
Description: as §1, §2

[4] = test system: IgM antibodies in Zika acute and convalescent plasma samples; assay: Full substitution scan peptide microarray, IgM; conditions: data not shown
Description: In a second screening round of the second study, microarrays with peptide substitution scans of linear WT peptide […] (SEQ ID NO. 9) and cyclic WT peptide KDAEVTGNS (SEQ ID NO. 10) were used to determine essential, conserved and less-conserved/variable amino acid positions and to identify stronger responding peptide variants. Each amino acid position in the WT sequence was systematically exchanged by all 20 physiologic amino acids, and the resulting linear and cyclic peptides and peptide variants were printed in triplicate on the peptide substitution scan microarrays. The immunoreactivity of the peptide variants was tested by incubation with Zika acute and convalescent plasma samples. The assays were carried out in a multiplexed format with fluorescently labeled secondary anti-human IgG and anti-human IgM antibodies to simultaneously analyze the IgG and IgM profiles of each sample.
A substitution analysis was performed with the WT peptide […] (SEQ ID No. 9) and cyclic peptide KDAEVTGNS (SEQ ID NO. 10) to determine essential, conserved and less-conserved/variable amino acid positions and to identify stronger reacting peptide variants.
Each amino acid position in the WT sequence was systematically exchanged by all 20 physiologic amino acids, and the resulting peptides and peptide variants were printed in triplicate on peptide microarrays. […]

[5] = test system: IgG antibodies in sera of Zika acute and Zika convalescent patients; assay: Chemiluminescence peptide ELISA; conditions: serum dilution 1:1000, Zika acute and convalescent patient sera
Description: The cyclic peptides and WT peptide were tested by a chemiluminescence ELISA using sera of Zika acute and Zika convalescent patients. A healthy control (HC) sera was included. The ELISA assays were performed under stringent conditions, that is at high serum dilutions (1:1000) to better evaluate the diagnostic potential of the peptide marker. The ELISA results are given in chemiluminescence units (CLUs). Samples were considered as positive, if the CLU of a respective sera is >=2 times over HC value.
For ELISA tests, four cyclic peptides with a Biotin tag preceding the C-terminal cysteine residue were synthesized. The non-cyclic WT peptide (“WT peptide”) was synthesized with a C-terminal Biotin tag at the C-terminus, the amino acid sequence was identical to SEQ ID NO. 9.
Peptide ELISA-Tests were performed on Streptavidin functionalized 96 well microtiterplates (Lumitrac, Greiner BioOne, Germany). The plates were coated with the respective biotinylated peptides with a biotin tag positioned at the C-terminus, preceding the C-terminal cysteine. The plates were incubated overnight at 4° C. with test sera at a dilution of 1:1000 (v/v) in PBST/10% Rockland (PBST=Phosphate buffered saline pH 7.2, 0.05% Tween 20). […] The chemiluminescence was measured after 10 minutes at 425 nm using an automated plate reader (CLARIOstar®. BMG LABTECH GmbH, Germany). […]

| Substance | IgG antibody reactivity of Zika patients against the whole ZIKV proteome ([1]; first screening round, arrays with whole proteome content, sera 1:1000) | IgG antibody reactivity, specific arrays with NS1, NS2a, NS2b content ([1]; second screening round) | IgG response, proteome-wide microarray [2] | IgM response, proteome-wide microarray [3] | IgM reactivity in substitution scan [4] | IgG reactivity in chemiluminescence ELISA (positive if CLU >=2 times over HC value) [5] |
| --- | --- | --- | --- | --- | --- | --- |
| NS2b: Zika virus non-structural protein NS2b, cofactor of NS3 protease, displayed as overlapping 15-mer peptides on arrays | most prominent interaction | clear signals | specific IgG responses | no specific IgM response | – | – |
| WEKDAEVTGNSPRLD [WT peptide] | – | – | – | – | not a single human sample exhibited any specific IgM reactivity | detected Zika specific antibody responses in acute patient sera as well as in convalescent patient sera |
| KDAEVTGNS (also: cyclic) [SEQ ID NO. 10, cyclic WT peptide on substitution scan microarrays] | – | – | – | – | not a single human sample exhibited any specific IgM reactivity | – |
